# Source: patent US20230321251A1, “LIPOSOME FORMULATION CONTAINING ANTIBACTERIAL AGENT” (priority 2020, published 2023)
# Columns and labels:
# E. faecalis SR7914 = assay: In vitro antibacterial activity (MIC), agar plate dilution; type: cell-based; settings: Enterococcus faecalis, SR7914, read-out: minimum inhibitory concentration (MIC), E. faecalis SR7914, 1000 cfu/spot
# Procedure: (§1) A minimum inhibitory concentration was measured as in vitro antibacterial activity. The minimum inhibitory concentration (MIC: μg/ml) was measured according to the standard method of Japanese Society of Chemotherapy, by an agar plate dilution method using 1000 cfu/spot as an inoculum amount and a susceptibility disk medium as a test medium.
# (§2) In the tables, a unit of a numerical value of inhibitory activity is μg/ml. In addition, in the tables, S. aureus represents Staphylococcus aureus and E. faecalis represents Gram-positive group D streptococci (enterococci) that are resident in a normal bacterial flora of a human intestinal tract, and can be causative bacteria of endocarditis and the like after surgery.
# E. faecium SR7940 = assay: as above; type: cell-based; settings: Enterococcus faecium, SR7940, read-out: minimum inhibitory concentration (MIC), E. faecium SR7940, 1000 cfu/spot
# Procedure: as §1, §2
# S. aureus SR3637 = assay: as above; type: cell-based; settings: Staphylococcus aureus, SR3637, read-out: minimum inhibitory concentration (MIC), S. aureus SR3637, 1000 cfu/spot
# Procedure: as §1, §2
# E. faecium SRM1101 = assay: as above; type: cell-based; settings: Enterococcus faecium, SRM1101, read-out: minimum inhibitory concentration (MIC)
# Procedure: as §1, §2
# E. faecalis SR1004 = assay: as above; type: cell-based; settings: Enterococcus faecalis, SR1004, read-out: minimum inhibitory concentration (MIC), E. faecalis SR1004, 1000 cfu/spot
# Procedure: as §1, §2
# [1] = test system: 2% red blood cell suspension (defibrated sheep blood); assay: In vitro hemolysis test; type: cell-based; settings: sheep red blood cells, 24 hours incubation
# Procedure: Hemolysis rates of the compound A drug substance and the liposome formulation of Example 2 were evaluated by the following methods.
# A 10 mM concentration solution of each test substance was prepared using a 5% sugar solution as a solvent, and 12 types of formulation solutions were prepared for each test substance up to 0.0049 mM by 2-fold serial dilution. Using 20% FBS-supplemented M-199 medium (With Earle's salts, sodium bicarbonate and 25 mM HEPES, supplement with 0.1 g/L L-glutamine) as a medium, a 2% red blood cell suspension (defibrated sheep blood) was prepared and mixed with a solvent or each test substance formulation solution (n=2). […] A mixed solution of the solvent or each test substance formulation solution and the red blood cell suspension or the medium was incubated for 24 hours, then the supernatant was collected, and an absorbance at 540 nm was measured. At the stage of completion of each incubation, an absorbance of the solvent and the red blood cell suspension, and an absorbance of the solvent and the medium were set to a reference of “hemolysis rate 0%”, and an absorbance of the 100% hemolysis solution was set to a reference of “100% hemolysis”, and a hemolysis rate by mixing and incubating each test substance formulation solution and the red blood cell suspension was calculated by the following calculation formula. […]
# [2] = In vitro cytotoxicity test (resazurin); type: cell-based; settings: African green monkey, Vero cells, 72 hours culture
# Procedure: Vero cells (final concentration: 2.0×10 to the power of 4 cells/well) cultured in advance and each test substance were added to 96 wells, and cultured for 72 hours under conditions of 5% CO2 and 37° C. Thereafter, 10 μl/well of a 0.01% resazurin solution was added, and after mixing, the cells were cultured under conditions of 5% CO2 and 37° C. for 4 hours, and then a fluorescence value (Ex 531 nm/Em 590 nm) was measured using a microplate reader.
# S. aureus ATCC25923 = assay: In vitro antibacterial activity (MIC), agar plate dilution; type: cell-based, Staphylococcus aureus; settings: Staphylococcus aureus, ATCC25923, read-out: minimum inhibitory concentration (MIC), S. aureus ATCC25923, 1000 cfu/spot
# Procedure: as §1, §2
# S. aureus ATCC700787 = assay: as above; type: cell-based, Staphylococcus aureus; settings: Staphylococcus aureus, ATCC700787, read-out: minimum inhibitory concentration (MIC)
# Procedure: as §1, §2
# S. aureus VRS1 = assay: as above; type: cell-based, Staphylococcus aureus; settings: Staphylococcus aureus, VRS1, read-out: minimum inhibitory concentration (MIC), S. aureus VRS1, 1000 cfu/spot
# Procedure: as §1, §2
compound,measurement,setting,value
CN[C@H](CC(C)C)C(=O)NC1C(=O)N[C@@H](CC(N)=O)C(=O)N[C@H]2C(=O)N[C@H]3C(=O)N[C@H](C(=O)N[C@@H](C(=O)O)c4cc(O)cc(O)c4-c4cc3ccc4O)[C@H](O[C@H]3C[C@](C)(N)[C@@H](O)[C@H](C)O3)c3ccc(c(Cl)c3)Oc3cc2cc(c3O[C@@H]2O[C@H](CO)[C@@H](O[C@@H]3O[C@H](CNCc4ccc(-c5ccc(Cl)cc5)s4)[C@H](O)[C@H](O)[C@H]3O)[C@H](O)[C@H]2O)Oc2ccc(cc2Cl)[C@H]1O (stereo partly shown) [Compound A drug substance],MIC,E. faecalis SR7914,2 µg/mL
same,MIC,E. faecium SR7940,2 µg/mL
same,MIC,S. aureus SR3637,1 µg/mL
same,MIC,E. faecium SRM1101,2 µg/mL
same,MIC,E. faecalis SR1004,0.5 µg/mL
same,Hemolysis rate,[1],34%
same,CC50 at 72 h,[2],128 µg/mL
same,MIC,S. aureus ATCC25923,1 µg/mL
same,MIC,S. aureus ATCC700787,2 µg/mL
same,MIC,S. aureus VRS1,4 µg/mL
